Assays:
[1] = target: Serine/threonine-protein kinase 32C (Homo sapiens) (UniProt Q86UX6); details: Compound concentration 100.0 nM
[2] = target: Cyclin-dependent kinase 4 (Homo sapiens) (UniProt P11802); details: Compound concentration 100.0 nM
[3] = target: Sodium-dependent serotonin transporter (Homo sapiens) (UniProt P31645); details: Compound concentration 10.0 uM
[4] = target: Cytoplasmic tyrosine-protein kinase BMX (Homo sapiens) (UniProt P51813); details: Compound concentration 100.0 nM
[5] = target: Tyrosine-protein kinase receptor UFO (Homo sapiens) (UniProt P30530); details: Compound concentration 100.0 nM
[6] = target: NUAK family SNF1-like kinase 1 (Homo sapiens) (UniProt O60285); details: Compound concentration 100.0 nM
[7] = target: cGMP-dependent protein kinase 2 (Homo sapiens) (UniProt Q13237); details: Compound concentration 100.0 nM
[8] = target: Protein kinase C delta type (Homo sapiens) (UniProt Q05655); details: Compound concentration 100.0 nM
Chain of Protein kinase C delta type (Homo sapiens) (Q05655 whole entry, looked up): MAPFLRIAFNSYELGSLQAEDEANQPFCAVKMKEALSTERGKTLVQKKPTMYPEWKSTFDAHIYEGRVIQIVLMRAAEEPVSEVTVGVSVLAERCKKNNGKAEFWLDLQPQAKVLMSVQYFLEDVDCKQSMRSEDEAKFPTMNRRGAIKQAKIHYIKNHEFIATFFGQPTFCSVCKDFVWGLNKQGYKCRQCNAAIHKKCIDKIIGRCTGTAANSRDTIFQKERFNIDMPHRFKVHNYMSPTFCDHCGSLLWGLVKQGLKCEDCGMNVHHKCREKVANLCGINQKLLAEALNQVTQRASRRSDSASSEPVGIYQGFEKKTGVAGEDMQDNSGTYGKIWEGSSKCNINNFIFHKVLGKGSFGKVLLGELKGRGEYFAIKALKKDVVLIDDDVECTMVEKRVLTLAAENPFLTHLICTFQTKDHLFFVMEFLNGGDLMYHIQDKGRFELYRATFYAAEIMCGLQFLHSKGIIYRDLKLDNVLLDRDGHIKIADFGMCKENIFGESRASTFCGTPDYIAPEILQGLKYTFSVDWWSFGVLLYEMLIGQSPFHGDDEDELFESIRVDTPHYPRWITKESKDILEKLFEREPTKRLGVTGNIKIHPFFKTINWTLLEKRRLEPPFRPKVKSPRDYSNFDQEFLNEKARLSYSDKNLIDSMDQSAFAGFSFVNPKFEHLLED

[9] = target: Phosphatidylinositol 4-phosphate 5-kinase type-1 alpha (Homo sapiens) (UniProt Q99755); details: Compound concentration 100.0 nM
[10] = target: Dual specificity mitogen-activated protein kinase kinase 6 (Homo sapiens) (UniProt P52564); details: Compound concentration 100.0 nM
Chain of Dual specificity mitogen-activated protein kinase kinase 6 (Homo sapiens) (P52564 whole entry): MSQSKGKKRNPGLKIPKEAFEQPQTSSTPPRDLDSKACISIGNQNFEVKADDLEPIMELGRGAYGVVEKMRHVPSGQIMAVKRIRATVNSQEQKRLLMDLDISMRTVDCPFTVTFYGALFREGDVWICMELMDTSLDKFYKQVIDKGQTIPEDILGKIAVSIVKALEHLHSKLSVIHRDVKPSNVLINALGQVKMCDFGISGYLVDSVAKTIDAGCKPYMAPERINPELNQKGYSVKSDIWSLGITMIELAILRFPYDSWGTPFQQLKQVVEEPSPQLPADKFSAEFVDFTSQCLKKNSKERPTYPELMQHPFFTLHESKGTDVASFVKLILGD

[11] = target: Ribosomal protein S6 kinase alpha-1 (Homo sapiens) (UniProt Q15418); details: Compound concentration 100.0 nM
[12] = test system: Hepatocyte growth factor receptor (Homo sapiens), P08581 [Y1235D]; details: Compound concentration 100.0 nM
[13] = target: Ephrin type-A receptor 8 (Homo sapiens) (UniProt P29322); details: Compound concentration 100.0 nM
[14] = target: Fibroblast growth factor receptor 4 (Homo sapiens) (UniProt P22455); details: Compound concentration 100.0 nM
[15] = target: Beta-1 adrenergic receptor (Homo sapiens) (UniProt P08588); details: Compound concentration 10.0 uM
[16] = target: Death-associated protein kinase 3 (Homo sapiens) (UniProt O43293); details: Compound concentration 100.0 nM
[17] = target: Dual specificity mitogen-activated protein kinase kinase 5 (Homo sapiens) (UniProt Q13163); details: Compound concentration 100.0 nM
[18] = target: Phosphatidylinositol 4-phosphate 3-kinase C2 domain-containing subunit beta (Homo sapiens) (UniProt O00750); details: Compound concentration 100.0 nM
[19] = target: MAP kinase-activated protein kinase 5 (Homo sapiens) (UniProt Q8IW41); details: Compound concentration 100.0 nM
[20] = test system: Receptor-type tyrosine-protein kinase FLT3 (Homo sapiens), P36888 [D835Y]; details: Compound concentration 100.0 nM
[21] = target: Casein kinase I isoform epsilon (Homo sapiens) (UniProt P49674); details: Compound concentration 100.0 nM
[22] = target: Serine/threonine-protein kinase MRCK gamma (Homo sapiens) (UniProt Q6DT37); details: Compound concentration 100.0 nM
[23] = test system: Phosphatidylinositol 4,5-bisphosphate 3-kinase catalytic subunit alpha isoform (Homo sapiens), P42336 [E545A]; details: Compound concentration 100.0 nM
Chain of Phosphatidylinositol 4,5-bisphosphate 3-kinase catalytic subunit alpha isoform (Homo sapiens), P42336 [E545A] (P42336 whole entry E545A, canonical isoform): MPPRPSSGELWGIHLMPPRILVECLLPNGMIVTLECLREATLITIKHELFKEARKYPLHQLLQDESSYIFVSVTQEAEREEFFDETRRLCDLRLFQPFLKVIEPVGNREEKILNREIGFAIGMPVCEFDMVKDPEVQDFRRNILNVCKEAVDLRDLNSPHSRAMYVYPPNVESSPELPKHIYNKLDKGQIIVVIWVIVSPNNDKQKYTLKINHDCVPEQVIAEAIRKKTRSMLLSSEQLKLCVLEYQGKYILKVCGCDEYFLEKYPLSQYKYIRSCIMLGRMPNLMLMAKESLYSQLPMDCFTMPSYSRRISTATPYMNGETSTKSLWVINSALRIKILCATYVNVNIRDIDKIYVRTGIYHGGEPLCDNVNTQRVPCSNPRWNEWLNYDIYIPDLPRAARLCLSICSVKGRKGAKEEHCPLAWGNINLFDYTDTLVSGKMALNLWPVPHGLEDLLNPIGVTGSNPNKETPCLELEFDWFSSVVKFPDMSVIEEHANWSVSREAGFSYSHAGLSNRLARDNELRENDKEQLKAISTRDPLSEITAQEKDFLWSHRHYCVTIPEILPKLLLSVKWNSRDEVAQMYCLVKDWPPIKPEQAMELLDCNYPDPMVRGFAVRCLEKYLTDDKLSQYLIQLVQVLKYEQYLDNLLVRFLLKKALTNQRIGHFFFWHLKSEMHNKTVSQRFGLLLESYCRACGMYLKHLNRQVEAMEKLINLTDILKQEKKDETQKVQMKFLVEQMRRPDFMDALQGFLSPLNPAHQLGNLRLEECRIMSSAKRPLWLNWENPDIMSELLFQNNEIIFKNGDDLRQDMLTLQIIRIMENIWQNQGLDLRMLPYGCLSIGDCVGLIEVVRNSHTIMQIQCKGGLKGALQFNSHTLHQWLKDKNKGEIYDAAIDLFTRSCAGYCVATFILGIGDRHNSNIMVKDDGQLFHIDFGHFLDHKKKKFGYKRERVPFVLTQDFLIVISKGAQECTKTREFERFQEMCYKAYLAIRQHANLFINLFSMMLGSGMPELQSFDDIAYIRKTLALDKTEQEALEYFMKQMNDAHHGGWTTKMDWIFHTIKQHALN

[24] = target: Death-associated protein kinase 2 (Homo sapiens) (UniProt Q9UIK4); details: Compound concentration 100.0 nM
Chain of Death-associated protein kinase 2 (Homo sapiens) (Q9UIK4 whole entry, looked up): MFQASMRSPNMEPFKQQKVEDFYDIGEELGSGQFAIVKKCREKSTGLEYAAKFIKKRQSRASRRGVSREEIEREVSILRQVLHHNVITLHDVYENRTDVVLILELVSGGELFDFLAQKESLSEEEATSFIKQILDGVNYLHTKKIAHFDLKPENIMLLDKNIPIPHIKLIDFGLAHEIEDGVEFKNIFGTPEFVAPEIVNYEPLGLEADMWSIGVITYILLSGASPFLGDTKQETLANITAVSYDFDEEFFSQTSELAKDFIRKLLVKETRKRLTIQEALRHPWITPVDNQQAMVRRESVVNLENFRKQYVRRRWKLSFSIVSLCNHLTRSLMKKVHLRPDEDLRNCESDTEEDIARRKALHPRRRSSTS

[25] = target: Ephrin type-A receptor 2 (Homo sapiens) (UniProt P29317); details: Compound concentration 100.0 nM
[26] = target: Tyrosine-protein kinase Tec (Homo sapiens) (UniProt P42680); details: Compound concentration 100.0 nM
[27] = target: Mast/stem cell growth factor receptor Kit (Homo sapiens) (UniProt P10721); details: Compound concentration 100.0 nM
[28] = target: Eukaryotic translation initiation factor 2-alpha kinase 1 (Homo sapiens) (UniProt Q9BQI3); details: Compound concentration 100.0 nM
[29] = test system: Epidermal growth factor receptor (Homo sapiens), P00533 [UNDEFINED MUTATION]; details: Compound concentration 100.0 nM
[30] = test system: Phosphatidylinositol 4,5-bisphosphate 3-kinase catalytic subunit alpha isoform (Homo sapiens), P42336 [E545K]; details: Compound concentration 100.0 nM
Chain of Phosphatidylinositol 4,5-bisphosphate 3-kinase catalytic subunit alpha isoform (Homo sapiens), P42336 [E545K] (P42336 whole entry E545K, canonical isoform): as the sequence (P42336 whole entry E545A, canonical isoform) above, with A545K counted along it

[31] = target: Serine/threonine-protein kinase TAO1 (Homo sapiens) (UniProt Q7L7X3); details: Compound concentration 100.0 nM
[32] = target: Serine/threonine-protein kinase BRSK2 (Homo sapiens) (UniProt Q8IWQ3); details: Compound concentration 100.0 nM
[33] = target: Receptor tyrosine-protein kinase erbB-2 (Homo sapiens) (UniProt P04626); details: Compound concentration 100.0 nM
[34] = test system: eIF-2-alpha kinase GCN2 (Homo sapiens), Q9P2K8 [S808G]; details: Compound concentration 100.0 nM
[35] = target: Tyrosine-protein kinase TXK (Homo sapiens) (UniProt P42681); details: Compound concentration 100.0 nM
[36] = target: Tyrosine-protein kinase Fyn (Homo sapiens, UniProt P06241); details: Compound concentration 100.0 nM
[37] = target: SRSF protein kinase 1 (Homo sapiens) (UniProt Q96SB4); details: Compound concentration 100.0 nM
[38] = target: 5-hydroxytryptamine receptor 2A (Homo sapiens) (UniProt P28223); details: Compound concentration 10.0 uM
[39] = target: 1-phosphatidylinositol 3-phosphate 5-kinase (Homo sapiens) (UniProt Q9Y2I7); details: Compound concentration 100.0 nM
Chain of 1-phosphatidylinositol 3-phosphate 5-kinase (Homo sapiens) (Q9Y2I7 whole entry): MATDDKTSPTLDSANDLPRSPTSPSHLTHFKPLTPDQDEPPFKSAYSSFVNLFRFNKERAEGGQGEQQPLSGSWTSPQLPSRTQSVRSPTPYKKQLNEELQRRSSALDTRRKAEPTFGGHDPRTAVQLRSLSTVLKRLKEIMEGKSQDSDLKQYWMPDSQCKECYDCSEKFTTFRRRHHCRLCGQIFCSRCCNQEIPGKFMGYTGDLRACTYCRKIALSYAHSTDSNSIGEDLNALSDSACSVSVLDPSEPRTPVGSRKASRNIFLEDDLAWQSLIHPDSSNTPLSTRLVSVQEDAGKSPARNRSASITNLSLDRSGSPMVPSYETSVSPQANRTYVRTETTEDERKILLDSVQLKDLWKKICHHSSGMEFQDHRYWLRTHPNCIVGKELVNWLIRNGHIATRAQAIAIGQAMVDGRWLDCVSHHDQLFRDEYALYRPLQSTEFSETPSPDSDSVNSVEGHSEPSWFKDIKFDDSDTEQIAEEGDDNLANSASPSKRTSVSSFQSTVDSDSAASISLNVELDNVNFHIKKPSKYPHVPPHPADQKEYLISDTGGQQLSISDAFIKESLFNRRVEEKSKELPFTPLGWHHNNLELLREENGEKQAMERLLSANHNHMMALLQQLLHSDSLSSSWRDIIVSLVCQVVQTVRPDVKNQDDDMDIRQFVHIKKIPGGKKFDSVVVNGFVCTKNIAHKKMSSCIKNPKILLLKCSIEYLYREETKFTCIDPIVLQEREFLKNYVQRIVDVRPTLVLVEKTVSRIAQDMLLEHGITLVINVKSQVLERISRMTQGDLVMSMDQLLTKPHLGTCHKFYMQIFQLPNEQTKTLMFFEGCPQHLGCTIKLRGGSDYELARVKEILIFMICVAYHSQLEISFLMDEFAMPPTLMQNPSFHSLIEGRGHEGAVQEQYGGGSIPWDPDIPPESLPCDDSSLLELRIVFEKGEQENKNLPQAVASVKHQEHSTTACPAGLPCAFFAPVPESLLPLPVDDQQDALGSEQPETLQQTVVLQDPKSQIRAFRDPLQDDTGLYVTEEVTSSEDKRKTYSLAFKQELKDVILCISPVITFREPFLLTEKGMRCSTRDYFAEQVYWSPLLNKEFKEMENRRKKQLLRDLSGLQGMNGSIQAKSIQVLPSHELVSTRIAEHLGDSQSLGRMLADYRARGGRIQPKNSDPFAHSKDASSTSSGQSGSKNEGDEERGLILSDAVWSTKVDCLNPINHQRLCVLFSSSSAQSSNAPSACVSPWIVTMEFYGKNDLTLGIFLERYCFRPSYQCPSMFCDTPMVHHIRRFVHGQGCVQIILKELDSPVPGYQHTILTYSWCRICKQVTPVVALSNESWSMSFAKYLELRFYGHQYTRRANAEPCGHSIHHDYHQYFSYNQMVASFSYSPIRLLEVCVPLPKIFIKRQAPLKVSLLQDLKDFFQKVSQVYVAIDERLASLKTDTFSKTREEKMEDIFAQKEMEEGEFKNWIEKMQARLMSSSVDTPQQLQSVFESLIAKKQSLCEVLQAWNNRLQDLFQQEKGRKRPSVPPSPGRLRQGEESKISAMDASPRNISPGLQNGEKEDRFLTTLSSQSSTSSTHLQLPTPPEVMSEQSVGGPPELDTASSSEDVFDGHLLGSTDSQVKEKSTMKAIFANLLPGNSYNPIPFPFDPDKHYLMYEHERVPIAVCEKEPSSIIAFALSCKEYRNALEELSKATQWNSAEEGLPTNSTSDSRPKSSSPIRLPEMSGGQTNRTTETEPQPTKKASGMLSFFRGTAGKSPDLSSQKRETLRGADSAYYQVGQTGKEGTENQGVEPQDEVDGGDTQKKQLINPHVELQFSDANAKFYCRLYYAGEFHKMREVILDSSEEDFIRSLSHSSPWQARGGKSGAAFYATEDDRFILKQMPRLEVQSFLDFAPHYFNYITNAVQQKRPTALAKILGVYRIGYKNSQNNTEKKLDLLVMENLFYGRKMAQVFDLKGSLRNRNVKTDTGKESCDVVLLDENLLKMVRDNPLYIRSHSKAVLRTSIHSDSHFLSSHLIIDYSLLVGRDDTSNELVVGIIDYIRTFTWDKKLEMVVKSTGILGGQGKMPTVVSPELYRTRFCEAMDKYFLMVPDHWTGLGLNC

[40] = target: Serine/threonine-protein kinase SIK1 (Homo sapiens) (UniProt P57059); details: Compound concentration 100.0 nM
[41] = target: Cyclin-dependent kinase 4 (Homo sapiens) (UniProt P11802); details: Compound concentration 100.0 nM; remark: listed apart in the source
[42] = target: Muscle, skeletal receptor tyrosine-protein kinase (Homo sapiens) (UniProt O15146); details: Compound concentration 100.0 nM
[43] = target: Tyrosine-protein kinase ABL2 (Homo sapiens) (UniProt P42684); details: Compound concentration 100.0 nM
[44] = target: Tyrosine-protein kinase JAK1 (Homo sapiens) (UniProt P23458); details: Compound concentration 100.0 nM
[45] = target: Mitogen-activated protein kinase kinase kinase 1 (Homo sapiens) (UniProt Q13233); details: Compound concentration 100.0 nM

Chain of Cyclin-dependent kinase 4 (Homo sapiens) (P11802 whole entry): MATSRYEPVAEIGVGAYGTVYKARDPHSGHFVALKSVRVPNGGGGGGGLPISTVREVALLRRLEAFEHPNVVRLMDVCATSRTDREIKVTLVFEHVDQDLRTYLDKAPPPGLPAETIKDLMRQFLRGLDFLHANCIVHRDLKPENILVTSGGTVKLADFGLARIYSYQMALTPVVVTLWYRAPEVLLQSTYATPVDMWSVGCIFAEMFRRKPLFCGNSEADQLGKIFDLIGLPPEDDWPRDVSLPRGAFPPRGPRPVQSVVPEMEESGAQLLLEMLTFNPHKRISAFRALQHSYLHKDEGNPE

## Cc1ccc(-c2cnc([C@@]3(O)CC[C@H](C(=O)O)C(C)(C)C3)s2)cc1Nc1cccc(C(F)(F)F)n1 [MRL-SYKi-NC]
[1]
  residual activity: 100%
[2]
  residual activity: 93.4%
[3]
  inhibition: 15.7%
[4]
  residual activity: 100%
[5]
  residual activity: 100%
[6]
  residual activity: 100%
[7]
  residual activity: 69.9%
[8]
  residual activity: 89%
[9]
  residual activity: 93%
[10]
  residual activity: 89.3%
[11]
  residual activity: 91.2%
[12]
  residual activity: 77.3%
[13]
  residual activity: 88.9%
[14]
  residual activity: 100%
[15]
  inhibition: 10.3%
[16]
  residual activity: 92.7%
[17]
  residual activity: 85.2%
[18]
  residual activity: 69.2%
[19]
  residual activity: 97.7%
[20]
  residual activity: 94.1%
[21]
  residual activity: 87.6%
[22]
  residual activity: 100%
[23]
  residual activity: 74.7%
[24]
  residual activity: 84.8%
[25]
  residual activity: 100%
[26]
  residual activity: 91.2%
[27]
  residual activity: 100%
[28]
  residual activity: 83.4%
[29]
  residual activity: 100%
[30]
  residual activity: 97.7%
[31]
  residual activity: 89.5%
[32]
  residual activity: 60.7%
[33]
  residual activity: 100%
[34]
  residual activity: 100%
[35]
  residual activity: 88.4%
[36]
  residual activity: 100%
[37]
  residual activity: 89.7%
[38]
  inhibition: 11.2%
[39]
  residual activity: 89.4%
[40]
  residual activity: 100%
[41]
  residual activity: 100%
[42]
  residual activity: 93.6%
[43]
  residual activity: 98.3%
[44]
  residual activity: 100%
[45]
  residual activity: 96%

## Cc1cc(Nc2nccc(C)n2)cc(-c2cnc([C@@]3(O)CC[C@H](C(=O)O)C(C)(C)C3)s2)c1 [MRL-SYKi]
[1]
  residual activity: 85.9%
[2]
  residual activity: 100%
[3]
  inhibition: 3.34%
[4]
  residual activity: 95.1%
[5]
  residual activity: 100%
[6]
  residual activity: 100%
[7]
  residual activity: 100%
[8]
  residual activity: 83.7%
[9]
  residual activity: 100%
[10]
  residual activity: 100%
[11]
  residual activity: 93%
[12]
  residual activity: 89.9%
[13]
  residual activity: 100%
[14]
  residual activity: 100%
[15]
  inhibition: -9.08%
[16]
  residual activity: 100%
[17]
  residual activity: 25.2%
[18]
  residual activity: 100%
[19]
  residual activity: 100%
[20]
  residual activity: 83.4%
[21]
  residual activity: 100%
[22]
  residual activity: 93.6%
[23]
  residual activity: 72.7%
[24]
  residual activity: 100%
[25]
  residual activity: 100%
[26]
  residual activity: 75.2%
[27]
  residual activity: 71.7%
[28]
  residual activity: 100%
[29]
  residual activity: 65%
[30]
  residual activity: 68.3%
[31]
  residual activity: 100%
[32]
  residual activity: 100%
[33]
  residual activity: 89.6%
[34]
  residual activity: 56.2%
[35]
  residual activity: 64%
[36]
  residual activity: 36.1%
[37]
  residual activity: 97.7%
[38]
  inhibition: -4.23%
[39]
  residual activity: 98.7%
[40]
  residual activity: 94.3%
[41]
  residual activity: 85.4%
[42]
  residual activity: 100%
[43]
  residual activity: 85.8%
[44]
  residual activity: 100%
[45]
  residual activity: 100%

Source: ChEMBL document CHEMBL4507285, “Data for DCP probe MRL-SYKi” (2021)
